Laboratory results published in patent US20040110718A1, “Anti-HCV nucleoside derivatives” (priority 2000, published 2004).

Test system: HCV replicon RNA replication
Assay: HCV replicon assay (quantification of replicon RNA, Northern blot / Taqman kinetic PCR)
Assay type: cell-based
Conditions: Hepatitis C virus, Huh-7, 72 h
Procedure: Assay Method: The activity of the compounds was assayed using an adaptation of the method reported by Lohmann et al [V. Lohmann et al., Science, 1999, 285, 110-113].
The HCV replicon-containing cell line is used for the identification of small molecules that are able to inhibit the replication of the replicon RNA. Since the replicon RNA replication mimics the replication of the HCV RNA in infected hepatocytes, it is believed that those small molecules that have the above property are interesting for further development as anti-HCV drugs.
The inhibition of the HCV replicon RNA replication will lead to a decrease of the replicon RNA in the cell, which can be measured using a method that specifically quantifies this RNA.
Northern blot: One method for quantification of this RNA uses the standard Northern blot known to any person skilled in the art.
Kinetic PCR: A second assay for the quantification of replicon RNA is based on the amplification of the replicon RNA that remains in the cell, after incubation of the cells with a proper concentration of the small molecules. This method involves the reverse transcription of the replicon RNA to the corresponding complementary DNA (cDNA), followed by amplification of the cDNA using the Taqman Kinetic PCR technology (PE Biosystems). This consists of hybridisation of the cDNA with a complementary reporter oligonucleotide (probe), containing a combined fluorescent dye and a quencher dye. Amplification of the DNA sequence containing the hybridised reporter probe, using flanking oligonucleotide primers will lead to the separation of the fluorescent dye from the quencher dye. This will result in an increase of the fluorescence during each amplification cycle.
The neomycin phosphotransferase gene sequence that is present in the replicon RNA was chosen for amplification using specifically designed oligonucleotide primers. To control for (a) cell number that can vary depending on the toxicity or cytostatic effect of the small molecules, and (b) for errors during total RNA extraction, amplification of the host β-actin gene is used for normalisation.
The accumulation of the PCR products during the reaction is monitored directly by measuring the increase in fluorescence of the reporter dye. The amount of HCV replicon RNA (and β-actin RNA) originally present in the total RNA extracted from the cells is then expressed as a threshold cycle, e.g. the cycle at which there is a statistically significant increase in the fluorescence above the background.
For this procedure, HCV replicon-containing human hepatoma Huh7 cells (9-13) in growth medium (DMEM) containing 5% FCS are plated in a 96-well plate at 5×10^3 cells per well, and the plate incubated overnight. 24 hours later, different dilutions in 0.1 ml growth medium of chemical compounds were added to the wells, and the plate further incubated at 37° C. for three days. Total RNA coming from each well is extracted using the RNeasy™ procedure (Qiagen manufacturer instructions), and the total RNA is eluted in a final volume of 0.13 ml. Next, a 2 μl sample of the total RNA is used for convertion into cDNA using a reverse transcription (RT) step. A RT mastermix containing 1 μl 10× Taqman RT buffer, 2.2 μl 25 mM MgCl2 (5.5 mM final conc.), 2 μl dNTP mix (500 μM each), 0.5 μl random hexamer primers (2.5 μM), 0.2 μl RNase inhibitor (0.4 u/μl ), 0.25 μl RT (1.25 u/μl ), 1.85 μl H2O, was distributed in a 96-well plate and 2 μl total RNA was added to each well.
The RT reaction is performed by incubation of the plate 10 min at 25° C., 30 min at 48° C., 5 min at 95° C. and cooling to 4° C. The cDNA samples are then stored at −20° C. or directly used for the PCR reaction. […]

| Structure (SMILES) | IC50 [nM] |
| --- | --- |
| Nc1ncnc2c1nc(Br)n2[C@@H]1O[C@H](CO)[C@@H](O)[C@H]1O [Example 10, 8-Bromoadenosine] | 3600 |

Same assay, conditions: Hepatitis C virus, Huh-7, 72 h; HCV replicon-containing human hepatoma Huh7 cells (9-13), three days incubation; concentration reducing replicon RNA levels by 50%; read-out: IC50

| Structure (SMILES) | IC50 [nM] |
| --- | --- |
| CN(C)c1ncnc2c1ncn2[C@@H]1O[C@H](CO)[C@@H](O)[C@H]1O [Example 1, 6-Dimethylamino-9-(β-D-ribofuranosyl)purine] | 600 |
| OC[C@H]1O[C@@H](n2cnc3c(-n4cncn4)ncnc32)[C@H](O)[C@@H]1O [Example 112, 9-(β-D-Ribofuranosyl)-6-(1,2,4-triazol-1-yl)purine] | 4400 |
| Nc1ccn([C@@H]2O[C@H](CO)[C@@H](O)C2(F)F)c(=O)n1 [Example 243, 1-(2-deoxy-2,2-difluoro-β-D-erythropentofuranosyl)cytosine] | 70 |
| Nc1ccn([C@@H]2C[C@H](CO)[C@@H](O)C2(F)F)c(=O)n1 [Example 245, 1-[1(R)-2,2-difluoro-3(R)-hydroxy-4(R)-(hydroxymethyl)cyclopentyl]-4-amino-1H-pyrimindin-2-one] | 2000 |
| OC[C@H]1O[C@@H](n2cnc3c(-n4cccc4)ncnc32)[C@H](O)[C@@H]1O [Example 105, 6-(1-Pyrrolyl)-9-(β-D-ribofuranosyl)purine] | 100 |
| OC[C@H]1O[C@@H](n2cnc3c(N4CCc5ccccc5C4)ncnc32)[C@H](O)[C@@H]1O [Example 57, 9-(β-D-Ribofuranosyl)-6-(1,2,3,4-tetrahydro-2-isoquinolyl)purine] | 100 |
| OC[C@H]1O[C@@H](n2cnc3c(N4CCCC4)ncnc32)[C@H](O)[C@@H]1O [Example 77, 6-(1-Pyrrolidinyl)-9-(β-D-ribofuranosyl)purine] | 2600 |
| OC[C@H]1O[C@@H](n2cnc3c(-n4ccnc4)ncnc32)[C@H](O)[C@@H]1O [Example 111, 6-(1-Imidazolyl)-9-(β-D-ribofuranosyl)purine] | 6200 |
| O=c1[nH]/c(=N/O)ccn1[C@@H]1O[C@H](CO)[C@@H](O)[C@H]1O [Example 239, 4-oximino-1-(β-D-ribofuranosyl)pyrimidin-2(1H)-one] | 1300 |
| O=c1[nH]c(=O)n([C@@H]2O[C@H](CO)[C@@H](O)[C@H]2O)cc1F [Example 24, 5-Fluorouridine] | 1400 |
| C#CCNc1ncnc2c1ncn2[C@@H]1O[C@H](CO)[C@@H](O)[C@H]1O [Example 81, 6-(2-Propynyl)amino-9-(β-D-ribofuranosyl)purine] | 3800 |
| Nc1ccn([C@H]2O[C@@H](CO)[C@H](O)[C@@H]2O)c(=O)n1 [Example 244, L-cytidine] | 10000 |
| CSc1ncnc2c1ncn2[C@@H]1O[C@H](CO)[C@@H](O)[C@H]1O [Example 16, 6-Methylthio-9-(β-D-ribofuranosyl)purine] | 80 |
| OC[C@H]1O[C@@H](n2cnc3c(-n4cccn4)ncnc32)[C@H](O)[C@@H]1O [Example 113, 6-(1-Pyrazolyl)-9-(β-D-ribofuranosyl)purine] | 4400 |
| N=c1c2ncn([C@@H]3O[C@H](CO)[C@@H](O)[C@H]3O)c2ncn1Cc1ccccc1 [Example 93, 1-Benzyl-6-imino-9-(β-D-ribofuranosyl)purine] | 4500 |

Test system: not given
Assay: not given
Conditions: not given

| melting point | Structure (SMILES) |
| --- | --- |
| 175 to 176 °C | OC[C@@H]1C[C@@H](O)[C@H](n2cnc3c(-n4cccc4)ncnc32)O1 |
| 210 to 215 °C | Nc1ncnc2c1nc(NCCN1CCOCC1)n2[C@@H]1O[C@H](CO)[C@@H](O)[C@H]1O |
| 212 to 213 °C | OC[C@H]1O[C@@H](n2cnc3c(-n4cccc4)ncnc32)[C@@H](O)[C@@H]1O |
| 145 to 150 °C (dec.) | Nc1ncnc2c1nc(N1CCc3ccccc3C1)n2[C@@H]1O[C@H](CO)[C@@H](O)[C@H]1O |
| 180 to 183 °C | Nc1ncnc2c1nc(NCCCc1ccccc1)n2[C@@H]1O[C@H](CO)[C@@H](O)[C@H]1O |
| 225 to 228 °C | Cn1cccc1CCNc1nc2c(N)ncnc2n1[C@@H]1O[C@H](CO)[C@@H](O)[C@H]1O |
| 140 to 150 °C | Nc1ncnc2c1nc(NCc1cccc3ccccc13)n2[C@@H]1O[C@H](CO)[C@@H](O)[C@H]1O |
| 117 to 124 °C (dec.) | Cc1ccc(CCNc2nc3c(N)ncnc3n2[C@@H]2O[C@H](CO)[C@@H](O)[C@H]2O)cc1 |
| 220 to 223 °C (dec.) | Nc1ncnc2c1nc(N1CCN(c3ccccc3)CC1)n2[C@@H]1O[C@H](CO)[C@@H](O)[C@H]1O |
| 229 °C | OC[C@H]1O[C@@H](n2cnc3c(N4CCCC4)nc(Cl)nc32)[C@H](O)[C@@H]1O |
| 198 to 201 °C | Nc1ncnc2c1nc(NCCCc1ccccc1)n2[C@H]1C[C@H](O)[C@@H](CO)O1 |
| 132 to 134 °C | Nc1ncnc2c1nc(NCc1ccccc1)n2[C@H]1C[C@H](O)[C@@H](CO)O1 |
| 235 to 237 °C (dec.) | Nc1ncnc2c1nc(NCc1cccnc1)n2[C@@H]1O[C@H](CO)[C@@H](O)[C@H]1O |
| 159 to 161 °C | Nc1ncnc2c1nc(NCCCCCCc1ccccc1)n2[C@H]1C[C@H](O)[C@@H](CO)O1 |
| 168 to 171 °C | Nc1ncnc2c1nc(NCCCCc1ccccc1)n2[C@H]1C[C@H](O)[C@@H](CO)O1 |
| 118 to 120 °C | CN(CCc1ccccc1)c1nc2c(N)ncnc2n1[C@@H]1O[C@H](CO)[C@@H](O)[C@H]1O |
| 180 to 181 °C | CCc1cn([C@@H]2O[C@H](CO)[C@@H](O)[C@H]2O)c(=O)[nH]c1=O |
| 210 to 213 °C | Nc1ncnc2c1nc(N1CCOCC1)n2[C@@H]1O[C@H](CO)[C@@H](O)[C@H]1O |

Continued, compound first:

| Structure (SMILES) | melting point |
| --- | --- |
| O=c1ccn([C@@H]2O[C@H](CO)[C@@H](O)[C@H]2Cl)c(=O)[nH]1 | 206 to 207 °C |
| Nc1ncnc2c1nc(NCCCCCCc1ccccc1)n2[C@@H]1O[C@H](CO)[C@@H](O)[C@H]1O | 165 to 167 °C |
| Nc1nc(-c2ccccc2)c2ncn([C@@H]3O[C@H](CO)[C@@H](O)[C@H]3O)c2n1 | 187 to 190 °C |
| Nc1ncnc2c1nc(NCCc1ccc(O)cc1)n2[C@@H]1O[C@H](CO)[C@@H](O)[C@H]1O | 262 to 265 °C (dec.) |
| C=CCNc1nc2c(N)ncnc2n1[C@@H]1O[C@H](CO)[C@@H](O)[C@H]1O | 234 to 237 °C (dec.) |
| Nc1ncnc2c1nc(NCCc1ccc(Cl)cc1Cl)n2[C@@H]1O[C@H](CO)[C@@H](O)[C@H]1O | 164 to 168 °C (dec.) |
| Nc1ncnc2c1nc(NCCc1ccccc1)n2[C@H]1C[C@H](O)[C@@H](CO)O1 | 192 to 195 °C |
| Nc1ncnc2c1nc(NCCc1ccc(S(N)(=O)=O)cc1)n2[C@@H]1O[C@H](CO)[C@@H](O)[C@H]1O | 157 to 163 °C (dec.) |
| OC[C@@H]1O[C@H](n2cnc3c(-n4cccc4)ncnc32)[C@@H](O)[C@H]1O | 114 to 115 °C |
| Nc1ncnc2c1nc(N1CCCCC1)n2[C@@H]1O[C@H](CO)[C@@H](O)[C@H]1O | 207 to 209 °C (dec.) |
| Nc1ncnc2c1nc(NCCCCc1ccccc1)n2[C@@H]1O[C@H](CO)[C@@H](O)[C@H]1O | 190 °C |
| O=c1ccn([C@@H]2O[C@H](CO)[C@@H](O)[C@H]2Br)c(=O)[nH]1 | 194 to 195 °C |
| Nc1ncnc2c1nc(NCCc1c[nH]cn1)n2[C@@H]1O[C@H](CO)[C@@H](O)[C@H]1O | 148 to 156 °C (dec.) |
| Nc1ncnc2c1nc(NCCc1ccc(Cl)cc1)n2[C@@H]1O[C@H](CO)[C@@H](O)[C@H]1O | 155 to 158 °C (dec.) |
| Nc1ncnc2c1nc(NCCC1CCCCC1)n2[C@@H]1O[C@H](CO)[C@@H](O)[C@H]1O | 203 to 205 °C |
